15 compounds from patent publication US8088772B2, “Sulfonamides and their use as a medicament” (The Genetics Company, Inc., priority 2006, dated 2012) can be followed below.

For assay [1], the system named is Wnt pathway. Description: Cell Assay (CA): inhibition of Wnt activity in cancer cells, Tcf reporter gene. Type of assay: cell-based. To be noted: inhibition class in the Cell Assay. An excerpt:
Inhibition of Wnt Activity in Cancer Cells
The effect of β-catenin/BCL9 inhibitors identified in the ELISA-based protein-protein interaction assay on the Wnt pathway can be evaluated in a cell culture system using a reporter gene responsive to the Tcf/Lef family of transcription factors or by quantitative analysis of Wnt target genes in appropriate cell lines.
A reporter gene is a construct which comprises a readily detectable or assayable gene such β-galactosidase, green fluorescent protein, chloramphenicol acetyltransferase or luciferase, linked in cis to a transcription factor response element and a minimal promoter. Depending on the expression vectors used, this protocol can be applied, e.g. for mammalian as well as for Drosophila cell lines. For instance, colon cancer cells with constitutively active Wnt pathway like DLD-1 or SW620 (ATCC) are a well suitable system. Hereby, a Tcf-4 driven luciferase reporter plasmid (i.e. TOP-FLASH, Upstate biotechnology, New York, USA) is transiently or stably transfected into cells known in the art. Any means for introducing genetic material into cells can be used, including but not limited to infection, electroporation or transfection. For instance, to introduce DNA into DLD-1 cells, a lipofection agent like the Lipofectamine transfection reagent (Life Technologies, Inc.) can be used. By transient transfection protocols, a second reporter gene, e.g. the renilla luciferase reporter plasmid pRL-SV40 (Promega Corporation, Madison USA), needs to be co-transfected to normalize for transfection efficiency. Drugs are added to the media 24 h after trans-fection (transient transfection) or 24 h after seeding of the cells (stably transfected cells). Cell extracts are prepared 24 to 48 h later and assayed for reporter gene activity as described by the manufacturer (eg. for luciferase activity: Promega Corporation). Compounds reducing reporter gene activity more than 50% compared to solvent alone treated cells are considered as hits. In parallel, toxicity can be assessed for instance by the yellow tetrazolium salt cell proliferation assay (MTT) assay.
A general note: A reporter such as luciferase makes a cellular process visible.

The subject of assay [2] is βCatenin-BCL9. As to the kind of experiment: ELISA based protein-protein interaction assay. It is filed as binding. The following applies: inhibition class of the βCatenin-BCL9 interaction. On the procedure: In vitro ELISA-based Protein-protein Interaction Assay
Protein Production in Bacteria
cDNAs including the binding domains of Lgs and βCatenin were fused downstream of glutathione-S-transferase (GST) cDNA in pGEX-4T inducible bacterial expression vector (Pharmacia). Fusion proteins were produced in BL21 bacteria (e.g. Stratagene) following manufacturer's recommendation.
To isolate the produced fusions protein bacteria were lysed in sonication buffer (10 mM Tris HCl pH 8.0, 150 mM NaCl, 1 mM EDTA, 1.5% sarkosyl, 2% Triton-X-100, 1 mM DTT and protease inhibitors), followed by short sonication on ice (e.g. 3 times 20 seconds at middle power) and centrifugation. Cleared supernatants were incubated under gentle rotation with glutathione beads (Amersham Pharmacia) for 2 hrs at 4° C. Finally, beads were washed several time in washing buffer (20 mM Tris pH 8.0, 200 mM NaCl, 1 mM EDTA, 1 mM DTT, 1 mM MgCl2, 0.5% NP40), and stored in storage buffer (20 mM Tris pH 8.0, 200 mM NaCl, 1 mM EDTA, 1 mM DTT, 1 mM MgCl2, 10% glycerol, 0.5% NP40, and proteinase inhibitors). The quality of the preparations was checked by SDS-gel electrophoresis by standard methods well known by persons skilled in the art. […]
On the technique in general: In an ELISA, binding on a coated surface is turned into a signal by an enzyme label.

As to `O=C(NNc1ccc([N+](=O)[O-])cc1S(=O)(=O)Nc1ccccc1Cl)c1cc(Cl)cc(Cl)c1` [TGC0011568], the CA in assay [1] is listed as 4 (61-80% inhibition). The ELISA in assay [2] is recorded as 1.5.
The corresponding values for `Cc1cc(-c2ccccc2)nn1-c1ccc([N+](=O)[O-])cc1S(=O)(=O)Nc1ccccc1Cl` [TGC0011569] are 4 (61-80% inhibition) and 1.5.
The corresponding values for `Cc1cc(-c2ccccc2)n(-c2ccc([N+](=O)[O-])cc2S(=O)(=O)Nc2ccccc2Cl)n1` [TGC0011570] are 4 (61-80% inhibition) and 5 (81-100% inhibition).
Consider `Nc1ccc(NC(=O)Cc2ccc(Cl)cc2)c(S(=O)(=O)Nc2ccccc2Cl)c1` [TGC0011573], for which, in assay [1], the CA was 1 (0-20% inhibition). Besides, in assay [2], the ELISA is given as 3 (41-60% inhibition).
Taken in the same sequence, the figures for `O=C(Cc1ccc(Cl)cc1)Nc1ccc(N2CCOCC2)c(S(=O)(=O)Nc2ccccc2Cl)c1` [TGC0011574] were 2.5 and 3 (41-60% inhibition).
The corresponding values for `CC(=O)Nc1ccc(S(=O)(=O)NNc2ccc([N+](=O)[O-])cc2S(=O)(=O)Nc2ccccc2Cl)cc1` [TGC0011575] are 3 (41-60% inhibition) and 1 (0-20% inhibition).
Taken in the same sequence, the figures for `O=[N+]([O-])c1ccc(NNS(=O)(=O)c2ccc(Cl)cc2)c(S(=O)(=O)Nc2ccccc2Cl)c1` [TGC0011576] were 5 (81-100% inhibition) and 3 (41-60% inhibition).
In the case of `CS(=O)(=O)c1ccc(S(=O)(=O)NNc2ccc([N+](=O)[O-])cc2S(=O)(=O)Nc2ccccc2Cl)cc1` [TGC0011577], in assay [1], the CA is listed as 1 (0-20% inhibition). For the same compound, in assay [2], the ELISA is reported as 4 (61-80% inhibition).
Taken in the same sequence, the figures for `CC(=O)c1ccc(S(=O)(=O)NNc2ccc([N+](=O)[O-])cc2S(=O)(=O)Nc2ccccc2Cl)cc1` [TGC0011581] were 1 (0-20% inhibition) and 2 (21-40% inhibition).
Taken in the same sequence, the figures for `COc1ccc(/C=N/Nc2ccc(N)cc2S(=O)(=O)Nc2ccccc2Cl)cc1OC` [TGC0011584] were 3 (41-60% inhibition) and 1 (0-20% inhibition).
Taken in the same sequence, the figures for `O=C(O)c1ccc(CNNc2ccc([N+](=O)[O-])cc2S(=O)(=O)Nc2ccccc2Cl)cc1` [TGC0011589] were 4 (61-80% inhibition) and 5 (81-100% inhibition).
With `COC(=O)c1ccccc1S(=O)(=O)Nc1ccccc1Cl` [TGC0011601], the CA in assay [1] is given as 1 (0-20% inhibition). Also, the ELISA in assay [2] is reported as 1 (0-20% inhibition).
In turn, `O=[N+]([O-])c1ccc(NNCc2ccc(F)cc2)c(S(=O)(=O)Nc2ccccc2Cl)c1` [TGC0012257] displayed a CA in assay [1] of 1.5. Further, the ELISA in assay [2] was 1 (0-20% inhibition).
The corresponding values for `O=[N+]([O-])c1ccc(NNCc2ccc3nonc3c2)c(S(=O)(=O)Nc2ccccc2Cl)c1` [TGC0012260] are 1.5 and 4.5.
Taken in the same sequence, the figures for `O=[N+]([O-])c1ccc(NNCc2cc(F)cc(F)c2)c(S(=O)(=O)Nc2ccccc2Cl)c1` [TGC0012266] were 1.5 and 2.5.
